One may read the IC50 as the midpoint of a concentration-inhibition curve.

The source of these data is patent US20140045847A1, “CRYSTALLINE FORM OF A SALT OF A MORPHOLINO SULFONYL INDOLE DERIVATIVE AND A PROCESS FOR ITS PREPARATION” (PIRAMAL ENTERPRISES LIMITED, priority 2011, published 2014).

In one data set the target is T1, pIGF-1R (Homo sapiens, UniProt P08069).
T1 construct: endogenous in cells
The experiment in a line: IGF-1R autophosphorylation assay (Western blot), pIGF-1R. The format is cell-based. The settings on record: 1 h treatment, IGF-1 50 ng/mL stimulation. On the procedure: (§1) Cells were grown and maintained in a medium containing 10% FBS. Cells grown as subconfluent monolayer, were subjected to serum starvation by replacing the respective culture medium with plain medium (containing no serum) and incubated for about 16 h at 37° C. in 5% CO2 incubator. Serum starved cells were treated with compound I at different concentrations for 1 h at 37° C. in 5% CO2 incubator and stimulated with IGF-1 (50 ng/mL) for the last 5 minutes of treatment with Compound I. After stimulation cells were washed twice with cold 1×PBS, pH 7.2 and cell lysates were prepared using CelLytic™ M cell lysis reagent (Sigma) containing protease and phosphatase inhibitors. Estimation of the total protein content in each cell lysate was carried out using Bradford reagent. Equal amount of protein from each lysate was subjected to Sodium Dodecyl Sulphate-Polyacrylamide Gel Electrophoresis (SDS-PAGE) followed by Western blotting protocol using specific antibody to pIGF-1R, IGF-1Rβ, pAkt, Akt, Pp70S6, p70S6, Pp44/42, p44/42 and loading control, β-actin. Imaging was done with BIO-RAD Image-Lab Software. The band density was then estimated using the software Image J. From the band densities of the various proteins at different concentrations of Compound I, the IC50 concentrations for various proteins were calculated, and are enumerated in Table 3.
In general terms: In western blotting, separated proteins are transferred to a membrane and probed.

Data set [1] is described as follows: Stability of the solid form under stress conditions. The data set is classed as physicochemical.
The next data set deals with SK-ES cells. The experiment in a line: Anti-proliferative assay (CellTiter-Glo), SK-ES. The data set is classed as cell-based. The settings on record: Homo sapiens, 72 h, 100 ng/mL IGF-1 without FCS. On the procedure:
(§2) The cancer cell lines were seeded in triplicate (at density, from 3000-5000 cells/well depending on cell type) with 10% FCS in 180 μL of culture medium in tissue culture grade 96 well plates and allowed to recover for 24 h in humidified 5% CO2 incubator at 37±1° C. […] Compound I in crystalline form was used at concentration range of 0.1, 1, 3 and 10 μM and the plates were incubated for 72 h in humidified 5% CO2 incubator at 37±1° C. Control wells were treated with vehicle (DMSO). At the end of the incubation periods, the plates were assayed by the CellTiter-Glo® Luminescent Cell Viability assay protocol. Percent cytoxicity was calculated at the various drug concentrations. Graph for cytotoxicity vs. concentration of Compound I was plotted, and the IC50 values were determined
(§3) The CellTiter-Glo® Luminescent Cell Viability Assay is a homogeneous method to determine the number of viable cells in culture based on quantitation of the ATP present, which signals the presence of metabolically active cells. The amount of ATP is directly proportional to the number of cells present in culture
(§4) • 1. […] The luminescence is recorded using the POLARstar optima plate reader […] Values are IC50 in nM for different cell lines are provided for the crystalline form of Compound I in Table 4.
(In general: In ATP-based viability assays light output follows the ATP content of the culture.)

Another data set concerns RD-ES cells. Kind of data set: Anti-proliferative assay (CellTiter-Glo), RD-ES. The format is cell-based. The settings on record: Homo sapiens, 72 h, 100 ng/mL IGF-1 without FCS. On the procedure: as §2, §3, §4
A further data set relates to RD cells. Kind of data set: Anti-proliferative assay (CellTiter-Glo), RD. The data set is classed as cell-based. The settings on record: Homo sapiens, 72 h, 100 ng/mL IGF-1 without FCS. As for the experimental part: as §2, §3, §4
The next data set concerns HCT116 cells. Kind of data set: Anti-proliferative assay (CellTiter-Glo), HCT116. The settings on record: Homo sapiens, HCT-116; HCT116, 72 h, 100 ng/mL IGF-1 without FCS. The data set is classed as cell-based. On the procedure:
as §2, §3, §4

For a further data set, the system named is pAkt. Kind of data set: IGF-1R autophosphorylation assay (Western blot), pAkt. The data set is classed as cell-based, human. The settings on record: 1 h treatment, IGF-1 50 ng/mL stimulation. As for the experimental part: as §1
In another data set the test system is MCF7 cells. The experiment in a line: Anti-proliferative assay (CellTiter-Glo), MCF7. The data set is classed as cell-based. The settings on record: Homo sapiens; MCF7, 72 h, 100 ng/mL IGF-1 without FCS. On the procedure:
as §2, §3, §4

For the next data set, the system named is A673 cells. Kind of data set: Anti-proliferative assay (CellTiter-Glo), A673. The format is cell-based. The settings on record: Homo sapiens; A673, 72 h, 100 ng/mL IGF-1 without FCS. On the procedure: as §2, §3, §4
The target of data set [2] is T2, intracellular kinase domain of human IGF-1R (GST fusion protein) (Homo sapiens, UniProt P08069).
T2 construct: intracellular kinase domain of human IGF-1R and expressed as GST fusion proteins; GST; made in house
T2 sequence (P08069 999-1274 limits assumed): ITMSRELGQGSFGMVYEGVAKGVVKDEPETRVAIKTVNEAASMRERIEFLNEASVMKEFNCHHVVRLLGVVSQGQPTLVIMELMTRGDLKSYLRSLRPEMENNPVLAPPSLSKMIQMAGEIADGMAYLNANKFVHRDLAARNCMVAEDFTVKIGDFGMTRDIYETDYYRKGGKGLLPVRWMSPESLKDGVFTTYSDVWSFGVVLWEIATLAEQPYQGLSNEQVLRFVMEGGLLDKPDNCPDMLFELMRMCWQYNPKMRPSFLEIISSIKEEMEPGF
Kind of data set: In vitro IGF-1R kinase assay (HTRF). The settings on record: ATP 20 μM, IGFRK 0.25 nM, read-out: IC50 IGF-1R enzyme. The format is biochemical. As for the experimental part:
The in vitro kinase assays using IGF-1R kinase GST fusion proteins were conducted using a homogeneous time-resolved fluorescence (HTRF) format. Kinase reactions were carried out in a 384-well plate format in a final volume of 20 μL. The standard enzyme reaction buffer consisted of 50 mM Tris HCL (pH: 7.4), 1 mM EGTA, 10 mM MgCl2, 2 mM DTT, 0.01% Tween-20, IGF-1R/IR kinase enzyme, poly GT peptide substrate (Perkin Elmer [Ulight Glu-Tyr (4:1)]n) and ATP [concentration equivalent to Kmapp]. […] Europium cryptate—labeled antiphosphotyrosine antibody PY20 (5 μL) was added (final concentration of 2 nM) and the mixture was allowed to equilibrate for 1 hour at 23° C. followed by reading the plate in an Envision plate reader. […] The IC50 values for Compound I in both, the crystalline form and the amorphous form were determined by a four-parameter sigmoidal curve fit (Sigma plot or Graph pad) as represented in Table 2.
IGFRK enzyme used for the assay was intracellular kinase domain of human IGF-1R and expressed as GST fusion proteins using the baculovirus expression system and purified using glutathione—Sepharose column. […]
A general note: In TR-FRET formats the signal depends on donor and acceptor labels being close together.

The test system of the next data set is Pp70S6. The experiment in a line: IGF-1R autophosphorylation assay (Western blot), Pp70S6. The settings on record: 1 h treatment, IGF-1 50 ng/mL stimulation. The data set is classed as cell-based, human. As for the experimental part:
as §1

The next data set relates to human tumor cell lines. The settings on record: mesenchymal, epithelial and hematopoietic tumor cell lines; Carboni et al. 2009; cited from earlier work.
The mark [3] stands for this setting: MCF7 cells, listed as Crystalline form.
[4] abbreviates: Homo sapiens, A673, 1 h, A673 cells.

T1 sequence (P08069 31-1367): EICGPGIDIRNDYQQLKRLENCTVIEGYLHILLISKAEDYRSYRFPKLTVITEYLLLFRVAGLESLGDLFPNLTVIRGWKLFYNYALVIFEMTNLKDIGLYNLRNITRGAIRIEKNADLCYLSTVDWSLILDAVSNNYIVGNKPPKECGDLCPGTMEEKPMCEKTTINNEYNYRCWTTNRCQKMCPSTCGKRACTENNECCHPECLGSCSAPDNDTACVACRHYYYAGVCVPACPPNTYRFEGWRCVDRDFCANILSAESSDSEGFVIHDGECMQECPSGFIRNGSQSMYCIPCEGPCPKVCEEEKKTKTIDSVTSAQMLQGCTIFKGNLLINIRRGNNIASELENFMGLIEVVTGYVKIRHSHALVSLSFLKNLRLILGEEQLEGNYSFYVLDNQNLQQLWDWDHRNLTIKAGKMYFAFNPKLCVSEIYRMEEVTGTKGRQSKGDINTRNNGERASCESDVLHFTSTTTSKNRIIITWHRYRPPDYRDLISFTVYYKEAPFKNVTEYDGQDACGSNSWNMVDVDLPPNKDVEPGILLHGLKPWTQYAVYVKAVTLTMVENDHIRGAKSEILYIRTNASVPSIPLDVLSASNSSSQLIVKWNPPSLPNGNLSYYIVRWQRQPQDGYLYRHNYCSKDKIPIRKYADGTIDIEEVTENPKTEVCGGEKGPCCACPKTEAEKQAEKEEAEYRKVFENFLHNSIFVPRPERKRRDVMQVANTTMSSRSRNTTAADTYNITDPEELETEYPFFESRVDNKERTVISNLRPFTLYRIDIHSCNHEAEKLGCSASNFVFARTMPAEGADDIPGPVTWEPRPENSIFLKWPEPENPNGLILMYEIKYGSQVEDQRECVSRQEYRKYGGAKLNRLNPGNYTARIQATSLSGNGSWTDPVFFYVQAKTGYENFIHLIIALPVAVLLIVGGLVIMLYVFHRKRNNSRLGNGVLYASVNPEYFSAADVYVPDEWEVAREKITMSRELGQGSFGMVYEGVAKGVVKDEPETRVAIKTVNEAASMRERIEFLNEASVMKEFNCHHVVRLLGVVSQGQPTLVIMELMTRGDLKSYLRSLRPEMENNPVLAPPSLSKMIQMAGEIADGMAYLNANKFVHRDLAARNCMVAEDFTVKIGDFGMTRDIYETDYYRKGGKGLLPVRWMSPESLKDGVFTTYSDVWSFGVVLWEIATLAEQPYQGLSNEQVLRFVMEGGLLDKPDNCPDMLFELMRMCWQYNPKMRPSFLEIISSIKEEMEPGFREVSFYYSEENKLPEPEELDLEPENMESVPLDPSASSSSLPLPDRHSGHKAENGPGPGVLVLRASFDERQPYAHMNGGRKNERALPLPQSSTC

For `CCOC(=O)N1CCC(Nc2cc(Cl)cc3c(S(=O)(=O)N4CCO[C@H](COc5ccccc5)C4)c(C(N)=O)[nH]c23)CC1` [Compound I (crystalline form), (S)-ethyl 4-(2-carbamoyl-5-chloro-3-(2-(phenoxymethyl)morpholinosulfonyl)-1H-indol-7-ylamino)piperidine-1-carboxylate methane sulfonate], the IC50 at pIGF-1R (A673 cells) turned out to be 30 nM; on pIGF-1R (Colo205 cells) it was 46 nM; in the data set with SK-ES cells it was 450 nM; in the data set with RD-ES cells it was 250 nM; in the data set with RD cells, 1400 nM; with HCT116 cells it was 900 nM. Moreover, the IC50 worked out at 220 nM in the data set with pAkt (A673 cells); 23 nM in the data set with pAkt (Colo205 cells, listed as Crystalline form); 50 nM in the data set with pAkt (setting [3]); 160 nM with MCF7 cells; 1800 nM in the data set with A673 cells; 22 nM in [2]. Also, the IC50 in the data set with Pp70S6 (setting [3]) came out at 460 nM. Also, the “stability under stress conditions” value in data set [1] (listed as crystalline form of Compound I) is on record as “stable with reproducible pharmacological activity even under stress conditions”.

With `CCOC(=O)N1CCC(Nc2cc(Cl)cc3c(S(=O)(=O)N4CCO[C@H](COc5ccccc5)C4)c(C(N)=O)[nH]c23)CC1` [Compound I (amorphous form), (S)-ethyl 4-(2-carbamoyl-5-chloro-3-(2-(phenoxymethyl)morpholinosulfonyl)-1H-indol-7-ylamino)piperidine-1-carboxylate methane sulfonate], the half-maximal inhibitory concentration (IC50) against pIGF-1R (A673 cells) is less than 10 nM; on pIGF-1R (Colo205 cells), 400 nM; against pIGF-1R (MCF7 cells) it was 15 nM; with pAkt (Colo205 cells, listed as Amorphous form) it was 620 nM; in the data set with pAkt (setting [4]), 260 nM; in the data set with pAkt (MCF7 cells, listed as Amorphous form), 380 nM. Further, the IC50 came to 450 nM in the data set on Pp70S6 (setting [4]) and 680 nM in the data set on Pp70S6 (Homo sapiens, MCF7, 1 h, MCF7 cells). For the same compound, the “stability under stress conditions” value in data set [1] (listed as amorphous form of Compound I) is recorded as “unstable under stress conditions”.

For the compound `C[C@@]1(C(=O)Nc2ccc(F)nc2)CCCN1c1nc(Nc2cc(C3CC3)n[nH]2)c2cccn2n1` [BMS-754807], in the data set with human tumor cell lines, the “inhibition of growth of human tumor types in vitro” value was “effectively inhibits the growth”.
